Among the test systems are A549; CCRF-CEM; COLO 205; EKVX; HOP-62; HT-29; IGROV-1; LOX IMVI; Malme-3M; NCI-H23; NCI-H460; OVCAR-8; RXF 393; SF-268; SF-295; SF-539; SK-MEL-28; SK-OV-3; SNB-75; UACC-62.
Holding throughout (test): NCI-60 cell line screen, 48 h

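Protocol summary: plate cells (96-well), add compound at 5 concentrations, incubate 48 h, interpolate endpoints linearly. GI50 marks 50% less growth.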 Activity calls are given as the source filed them. Rule as the data show it: active = GI50 up to about 1.1 µM and inactive = higher.

On to `CC(=O)c1c(-c2ccco2)c(C#N)c(=S)n(C2OC(CO)C(O)C(O)C2O)c1C` (stereo not given), for which the GI50 is > 100 µM (inactive) with A549; 83.9 µM (inactive) in the assay on CCRF-CEM; > 100 µM (inactive) with COLO 205; 82 µM (inactive) in the assay on EKVX; > 100 µM (inactive) in the assay on HOP-62; > 100 µM (inactive) in the assay on HT-29. Moreover, the GI50 with IGROV-1 is > 100 µM (inactive); with LOX IMVI, 56.6 µM (inactive); in the assay with Malme-3M it was > 100 µM (inactive); in the assay on NCI-H23 it was > 100 µM (inactive); with NCI-H460, > 100 µM (inactive); with OVCAR-8 it was > 100 µM (inactive). In addition, the GI50 was > 100 µM (inactive) with RXF 393; > 100 µM (inactive) in the assay on SF-268; > 100 µM (inactive) in the assay with SF-295; 56 µM (inactive) in the assay with SF-539; 87.7 µM (inactive) with SK-MEL-28; > 100 µM (inactive) in the assay on SK-OV-3. The GI50 with SNB-75 is 47.5 µM (inactive); in the assay on UACC-62, 78.9 µM (inactive).

As to `N#C/C(=C\c1ccncc1)c1csc2ccccc12`, the GI50 is 23.4 µM (inactive) with A549; 20.4 µM (inactive) with CCRF-CEM; 18.9 µM (inactive) in the assay on COLO 205; 23.8 µM (inactive) with EKVX; 24.8 µM (inactive) in the assay on HOP-62; 18.6 µM (inactive) in the assay on HT-29. Also, the GI50 was 28 µM (inactive) in the assay on IGROV-1; 20.4 µM (inactive) in the assay with LOX IMVI; 32.7 µM (inactive) in the assay on Malme-3M; 25.2 µM (inactive) in the assay on NCI-H23; 24.9 µM (inactive) in the assay on NCI-H460; 28.5 µM (inactive) in the assay on OVCAR-8. The GI50 was 27.7 µM (inactive) in the assay on RXF 393; 22.9 µM (inactive) in the assay on SF-268; 32.4 µM (inactive) in the assay with SF-295; 21.4 µM (inactive) with SF-539; 34.1 µM (inactive) in the assay on SK-MEL-28; 34.8 µM (inactive) in the assay with SK-OV-3. Besides, the GI50 with SNB-75 is 24.4 µM (inactive); in the assay on UACC-62, 22.1 µM (inactive).

With `C/C=C1/C(=O)O[C@]23C=C[C@@H]4C(C(=O)OC)=CO[C@H](O[C@@H]12)[C@@H]43` [PLUMERICIN], the GI50 in the assay on A549 is 3.47 µM (inactive); in the assay on CCRF-CEM, 0.341 µM (active); in the assay with COLO 205, 1 µM (active); with EKVX it was 1.3 µM (inactive); with HOP-62, 6.38 µM (inactive); with HT-29, 2.18 µM (inactive). In addition, the GI50 was 1.19 µM (inactive) in the assay on IGROV-1; 0.336 µM (active) with LOX IMVI; 1.93 µM (inactive) in the assay on Malme-3M; 0.916 µM (active) with NCI-H23; 2.08 µM (inactive) in the assay on NCI-H460; 0.594 µM (active) in the assay on OVCAR-8. Besides, the GI50 was 0.55 µM (active) in the assay with RXF 393; 1.28 µM (inactive) in the assay with SF-268; 2.46 µM (inactive) in the assay on SF-295; 2.34 µM (inactive) in the assay on SF-539; 1 µM (active) in the assay on SK-MEL-28; 3.93 µM (inactive) in the assay on SK-OV-3. Besides, the values for the GI50 with SNB-75 and in the assay on UACC-62 were 3.34 µM (inactive) and 0.815 µM (active), respectively.

For the origin of these results see ChEMBL document CHEMBL1201862, “PubChem BioAssay data set” (2004).
